The values that follow come from patent US9546164B2 (GENENTECH, INC., priority 2013, dated 2017).

Counter-ions that a name gives are not always drawn.

The target in the first experiment is hNav1.7 (Homo sapiens (Human), UniProt Q15858). Briefly: Tritiated sulfonamide competitive binding to membranes from cells expressing hNav1.7 and the β1 subunit.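 Also: Filter-bound radioactivity counted by liquid scintillation, nonspecific binding defined with excess unlabelled ligand, IC50 fitted to percent inhibition of specific binding.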
Sequence of hNav1.7 (Q15858 other isoform, or with tags, fused parts or gaps): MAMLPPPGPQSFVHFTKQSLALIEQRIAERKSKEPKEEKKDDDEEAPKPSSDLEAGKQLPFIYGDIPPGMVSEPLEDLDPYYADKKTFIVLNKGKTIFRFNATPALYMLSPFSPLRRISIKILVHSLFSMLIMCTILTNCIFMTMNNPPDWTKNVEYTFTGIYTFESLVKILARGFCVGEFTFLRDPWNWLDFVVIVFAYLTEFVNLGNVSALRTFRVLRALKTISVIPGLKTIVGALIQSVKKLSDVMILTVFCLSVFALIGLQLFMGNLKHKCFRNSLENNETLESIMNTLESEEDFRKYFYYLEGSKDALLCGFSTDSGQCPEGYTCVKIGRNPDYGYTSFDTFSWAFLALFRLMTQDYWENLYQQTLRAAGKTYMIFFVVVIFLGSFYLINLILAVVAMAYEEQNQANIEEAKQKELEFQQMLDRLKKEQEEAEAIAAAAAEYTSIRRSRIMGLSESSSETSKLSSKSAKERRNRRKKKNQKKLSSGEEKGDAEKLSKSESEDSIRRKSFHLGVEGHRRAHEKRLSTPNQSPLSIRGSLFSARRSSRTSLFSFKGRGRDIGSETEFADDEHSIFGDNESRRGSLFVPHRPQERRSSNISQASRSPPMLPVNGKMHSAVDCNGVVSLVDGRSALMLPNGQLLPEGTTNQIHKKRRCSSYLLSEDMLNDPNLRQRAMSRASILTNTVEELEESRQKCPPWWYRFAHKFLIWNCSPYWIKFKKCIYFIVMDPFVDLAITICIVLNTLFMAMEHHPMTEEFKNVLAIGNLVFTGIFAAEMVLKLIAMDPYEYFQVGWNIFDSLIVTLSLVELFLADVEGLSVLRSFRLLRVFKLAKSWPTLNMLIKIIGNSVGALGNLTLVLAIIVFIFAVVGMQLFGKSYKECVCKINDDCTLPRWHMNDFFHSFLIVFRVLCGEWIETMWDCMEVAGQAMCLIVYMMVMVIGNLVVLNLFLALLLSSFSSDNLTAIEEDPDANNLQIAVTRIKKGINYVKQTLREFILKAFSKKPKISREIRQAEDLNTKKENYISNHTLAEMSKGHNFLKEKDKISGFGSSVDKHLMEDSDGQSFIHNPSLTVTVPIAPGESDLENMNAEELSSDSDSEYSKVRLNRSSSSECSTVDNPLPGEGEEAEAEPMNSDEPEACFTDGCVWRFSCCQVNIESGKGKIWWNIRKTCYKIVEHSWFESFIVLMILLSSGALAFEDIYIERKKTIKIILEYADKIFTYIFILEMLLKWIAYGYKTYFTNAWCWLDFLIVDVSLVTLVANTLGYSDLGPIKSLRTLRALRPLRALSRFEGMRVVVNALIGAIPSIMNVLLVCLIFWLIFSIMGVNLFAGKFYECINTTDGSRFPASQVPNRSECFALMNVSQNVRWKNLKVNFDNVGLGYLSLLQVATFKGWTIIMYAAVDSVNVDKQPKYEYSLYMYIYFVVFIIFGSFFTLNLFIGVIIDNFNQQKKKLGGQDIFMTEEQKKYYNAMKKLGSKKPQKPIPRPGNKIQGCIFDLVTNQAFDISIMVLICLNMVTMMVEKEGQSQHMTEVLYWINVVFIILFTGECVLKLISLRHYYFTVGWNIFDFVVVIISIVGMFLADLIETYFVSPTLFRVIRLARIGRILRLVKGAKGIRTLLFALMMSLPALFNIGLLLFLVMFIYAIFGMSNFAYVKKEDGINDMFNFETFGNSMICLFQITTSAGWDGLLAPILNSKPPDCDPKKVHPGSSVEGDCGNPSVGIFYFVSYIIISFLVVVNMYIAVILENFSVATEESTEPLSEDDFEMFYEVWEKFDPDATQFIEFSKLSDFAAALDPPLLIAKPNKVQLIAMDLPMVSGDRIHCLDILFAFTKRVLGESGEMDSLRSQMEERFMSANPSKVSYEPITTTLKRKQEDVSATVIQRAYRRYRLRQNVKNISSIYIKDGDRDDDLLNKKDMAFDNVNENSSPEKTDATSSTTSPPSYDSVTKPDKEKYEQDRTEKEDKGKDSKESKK
Sequence of hNav1.7 (Q07699 19-218 partner): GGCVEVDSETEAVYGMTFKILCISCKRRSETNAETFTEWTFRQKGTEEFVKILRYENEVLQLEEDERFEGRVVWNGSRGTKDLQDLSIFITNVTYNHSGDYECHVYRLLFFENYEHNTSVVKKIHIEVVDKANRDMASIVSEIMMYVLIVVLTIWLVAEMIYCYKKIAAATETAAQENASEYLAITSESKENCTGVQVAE
Settings: not given
`O=C(NS(=O)(=O)N1CCC1)c1cc(C2CC2)c(O[C@@H]2CCCN(c3ccc(F)cc3)C2)cc1F` [Example 37, (R)—N-(azetidin-1-ylsulfonyl)-5-cyclopropyl-2-fluoro-4-((1-(4-fluorophenyl)piperidin-3-yl)oxy)benzamide, trifluoroacetic acid salt] gave an IC50 of 0.0151 µM.

In the case of `O=C(NS(=O)(=O)C1CC1)c1cc(C2CC2)c(CN2CCC(Oc3ccc(Cl)c(C(F)(F)F)c3)CC2)cc1F` [Example 520, 4-((4-(4-chloro-3-(trifluoromethyl)phenoxy)piperidin-1-yl)methyl)-5-cyclopropyl-N-(cyclopropylsulfonyl)-2-fluorobenzamide, trifluoroacetic acid salt], the IC50 came out at 0.0073 µM. On the same count and under the same terms, in the case of `O=C(NS(=O)(=O)C1CC1)c1cc(C2CC2)c(CN2CCC(S(=O)(=O)c3cc(Cl)cc(Cl)c3)CC2)cc1F` [Example 533, 5-cyclopropyl-N-(cyclopropylsulfonyl)-4-((4-((3,5-dichlorophenyl)sulfonyl)piperidin-1-yl)methyl)-2-fluorobenzamide, trifluoroacetic acid salt] it was 0.127 µM; in that of `Cn1nc(-c2ccccc2)cc1CN1CCC[C@@H](Oc2cc(F)c(C(=O)NS(C)(=O)=O)cc2C2CC2)C1` [Example 12, (R)-5-cyclopropyl-2-fluoro-4-((1-((1-methyl-3-phenyl-1H-pyrazol-5-yl)methyl)piperidin-3-yl)oxy)-N-(methylsulfonyl)benzamide], 0.0113 µM.

Still in this experiment, the particulars now being: read-out: Ligand Binding Assay; 100 pM [3H]compound, membranes with hNav1.7 and β1 subunit, 18 h, room temperature.
Consider `O=C(NS(=O)(=O)C1CC1)c1cc(C2CC2)c(OCC2CCN(S(=O)(=O)c3ccc(C(F)(F)F)cc3)CC2)cc1F` [Example 373, 5-cyclopropyl-N-(cyclopropylsulfonyl)-2-fluoro-4-((1-((4-(trifluoromethyl)phenyl)sulfonyl)piperidin-4-yl)methoxy)benzamide], for which the IC50 is 0.0197 µM. On the same count and under the same terms, in the case of `O=C(NS(=O)(=O)C1CC1)c1cc(C2CC2)c(CN2[C@@H]3CC[C@H]2C[C@@H](Oc2cc(C(F)(F)F)c(Cl)cn2)C3)cc1F` [Example 551, 4-(((1R,3r,5S)-3-((5-chloro-4-(trifluoromethyl)pyridin-2-yl)oxy)-8-azabicyclo[3.2.1]octan-8-yl)methyl)-5-cyclopropyl-N-(cyclopropylsulfonyl)-2-fluorobenzamide, trifluoroacetic acid salt] it was 0.0075 µM; in that of `COC[C@H](c1ccc(F)c(C(F)(F)F)c1)N1CCC(COc2cc(F)c(C(=O)NS(C)(=O)=O)cc2C2CC2)CC1` (single isomer, unassigned) [Example 188], 0.0052 µM; in that of `O=C(NS(=O)(=O)C1CC1)c1cc(C2CC2)c(OCCC2CCN(Cc3cc(Cl)cc(Cl)c3)CC2)cc1F` [Example 304, 5-cyclopropyl-N-(cyclopropylsulfonyl)-4-(2-(1-(3,5-dichlorobenzyl)piperidin-4-yl)ethoxy)-2-fluorobenzamide, trifluoroacetic acid salt], 0.0037 µM.

As to `COc1ccc(CN2CCC(COc3cc(F)c(C(=O)NS(C)(=O)=O)cc3C3CC3)CC2)cc1Cl` [Example 183, 4-((1-(3-Chloro-4-methoxybenzyl)piperidin-4-yl)methyoxy)-5-cyclopropyl-2-fluoro-N-(methylsulfonyl)benzamide], the IC50 amounted to 0.047 µM. Same read-out and setting: with `CS(=O)(=O)NC(=O)c1cc(C2CC2)c(O[C@@H]2CCCN(Cc3cc(Cl)cc(OC(F)(F)F)c3)C2)cc1F` [Example 422, (R)-4-((1-(3-chloro-5-(trifluoromethoxy)benzyl)piperidin-3-yl)oxy)-5-cyclopropyl-2-fluoro-N-(methylsulfonyl)benzamide, trifluoroacetic acid salt] the figure was 0.0013 µM; with `CC1(COc2cc(F)c(C(=O)NS(C)(=O)=O)cc2C2CC2)CCN(Cc2cc(C(F)(F)F)cc(Cl)c2F)CC1` [Example 141, 4-((1-(3-chloro-2-fluoro-5-(trifluoromethyl)benzyl)-4-methylpiperidin-4-yl)methoxy)-5-cyclopropyl-2-fluoro-N-(methylsulfonyl)benzamide], 0.0039 µM; with `CS(=O)(=O)NC(=O)c1cc(C2CC2)c(OCC2CCN(S(=O)(=O)C3CCOCC3)CC2)cc1F` [Example 376, 5-cyclopropyl-2-fluoro-N-(methylsulfonyl)-4-((1-((tetrahydro-2H-pyran-4-yl)sulfonyl)piperidin-4-yl)methoxy)benzamide], 2.45 µM. For the compound `CS(=O)(=O)NC(=O)c1cc(C2CC2)c(OCC2CN([C@H](c3ccccc3)c3cccc(C#N)c3)C2)cc1F` [Example 109, (R)-4-((1-((3-Cyanophenyl)(phenyl)methyl)azetidin-3-yl)methoxy)-5-cyclopropyl-2-fluoro-N-(methylsulfonyl)benzamide], the IC50 is 0.0536 µM. As to `CS(=O)(=O)NC(=O)c1cc(C2CC2)c(OCC2CCN(Cc3ccccc3C(F)(F)F)CC2)cc1F` [Example 159, 5-Cyclopropyl-2-fluoro-N-(methylsulfonyl)-4-((1-(2-(trifluoromethyl)-benzyl)piperidin-4-yl)methoxy)benzamide], the IC50 was found to be 0.00542 µM. The same measure, in the same setting: with `C[Si](C)(C)CCS(=O)(=O)NC(=O)c1cc(C2CC2)c(OCC2CN(C(c3ccccc3)c3ccccc3)C2)cc1F` [Example 60, 4-((1-benzhydrylazetidin-3-yl)methoxy)-5-cyclopropyl-2-fluoro-N-((2-(trimethylsilyl)ethyl)sulfonyl)benzamide] the figure was 1.6 µM. `CCS(=O)(=O)NC(=O)c1cc(C2CC2)c(OCC2CCN([C@H](c3cc(Cl)cc(Cl)c3)C(C)(C)OC)CC2)cc1F` (single isomer, unassigned) [Example 207]: the IC50 was found to be 0.0017 µM. Take `O=C(NS(=O)(=O)C1CC1)c1cc(C2CC2)c(CN2CCC(OCc3ccc(F)cc3Cl)CC2)cc1F` [Example 480, 4-((4-((2-chloro-4-fluorobenzyl)oxy)piperidin-1-yl)methyl)-5-cyclopropyl-N-(cyclopropylsulfonyl)-2-fluorobenzamide, trifluoroacetic acid salt]: the IC50 stood at 0.0218 µM. The same measure, in the same setting: with `CCCCS(=O)(=O)NC(=O)c1cc(C2CC2)c(OCC2CN(C(c3ccccc3)c3ccccc3)C2)cc1F` [Example 65, 4-((1-benzhydrylazetidin-3-yl)methoxy)-N-(butylsulfonyl)-5-cyclopropyl-2-fluorobenzamide] the figure was 0.034 µM. On the same count and under the same terms, in the case of `COC[C@@H](c1ccc(Cl)c(Cl)c1)N1CCC(COc2cc(F)c(C(=O)NS(C)(=O)=O)cc2C2CC2)CC1` (single isomer, unassigned) [Example 264] it was 0.0092 µM; in that of `C[C@H](c1cc(Cl)cc(Cl)c1)N1CCC(COc2cc(F)c(C(=O)NS(C)(=O)=O)cc2Cl)CC1` [Example 404, (R)-5-chloro-4-((1-(1-(3,5-dichlorophenyl)ethyl)piperidin-4-yl)methoxy)-2-fluoro-N-(methylsulfonyl)benzamide, trifluoroacetic acid], 0.0201 µM.

In the case of `CS(=O)(=O)NC(=O)c1cc(C2CC2)c(OCC2CN([C@@H](c3ccccc3)c3ccc(F)cc3)C2)cc1F` [Example 144, (S)-5-Cyclopropyl-2-fluoro-4-((1-((4-fluorophenyl)(phenyl)methyl)azetidin-3-yl)methoxy)-N-(methylsulfonyl)benzamide], the IC50 is 0.00915 µM. Same read-out and setting: with `CS(=O)(=O)NC(=O)c1cc(C2CC2)c(O[C@@H]2CCCN(CC3(C(F)(F)F)CCCC3)C2)cc1F` [Example 327, (R)-5-cyclopropyl-2-fluoro-N-(methylsulfonyl)-4-((1-((1-(trifluoromethyl)cyclopentyl)methyl)piperidin-3-yl)oxy)benzamide] the figure was 0.0027 µM; with `O=C(NS(=O)(=O)C1CC1)c1cc(C2CC2)c(OCC2CCN(C(c3ccc(F)cc3)c3ccc(F)cc3)CC2)cc1F` [Example 363, 4-((1-(bis(4-fluorophenyl)methyl)piperidin-4-yl)methoxy)-5-cyclopropyl-N-(cyclopropylsulfonyl)-2-fluorobenzamide, trifluoroacetic acid salt], 0.0058 µM; with `O=C(NS(=O)(=O)C1CC1)c1cc(C2CC2)c(OCC2CCN(Cc3cc(C(F)(F)F)cc(Cl)c3F)CC2)cc1F` [Example 582, 4-((1-(3-chloro-2-fluoro-5-(trifluoromethyl)benzyl)piperidin-4-yl)methoxy)-5-cyclopropyl-N-(cyclopropylsulfonyl)-2-fluorobenzamide], 0.0042 µM. The same measure, in the same setting: in the case of `O=C(NS(=O)(=O)N1CCC1)c1cc(C2CC2)c(O[C@H]2CCN(Cc3ccccc3)C2)cc1F` [Example 45, (S)—N-(azetidin-1-ylsulfonyl)-4-((1-benzylyprrolidin-3-yl)oxy)-5-cyclopropyl-2-fluorobenzamide] it was 4.58 µM.

As to `C[C@@H](c1cc(Cl)cc(Cl)c1)N1CC(COc2cc(F)c(C(=O)NS(C)(=O)=O)cc2C2CC2)C1` [Example 120, (S)-5-Cyclopropyl-4-((1-(1-(3,5-dichlorophenyl)ethyl)azetidin-3-yl)methoxy)-2-fluoro-N-(methylsulfonyl)benzamide], the IC50 stood at 0.0206 µM. Consider `O=C(NS(=O)(=O)C1CC1)c1cc(C2CC2)c(CN2CCO[C@H](Cc3ccc(F)cc3Cl)C2)cc1F` [Example 467, (R)-4-((2-(2-chloro-4-fluorobenzyl)morpholino)methyl)-5-cyclopropyl-N-(cyclopropylsulfonyl)-2-fluorobenzamide, trifluoroacetic acid salt], for which the IC50 came to 0.0043 µM.

Regarding `O=C(NS(=O)(=O)C1CC1)c1cc(C2CC2)c(OCC2CCN(S(=O)(=O)C3COC3)CC2)cc1F` [Example 393, 5-cyclopropyl-N-(cyclopropylsulfonyl)-2-fluoro-4-((1-(oxetan-3-ylsulfonyl)piperidin-4-yl)methoxy)benzamide], the IC50 is 1.38 µM.

`CS(=O)(=O)NC(=O)c1cc(C2CC2)c(OCC2CN([C@@H](c3ccccc3)c3ccccc3Cl)C2)cc1F` [Example 150, (S)-4-((1-((2-Chlorophenyl)(phenyl)methyl)azetidin-3-yl)methoxy)-5-cyclopropyl-2-fluoro-N-(methylsulfonyl)benzamide]: the IC50 was 0.1 µM.

With `COC[C@H](c1cc(Cl)cc(Cl)c1)N1CCC(COc2cc(F)c(C(=O)NS(C)(=O)=O)cc2C2CC2)CC1` (single isomer, unassigned) [Example 163], the IC50 turned out to be 0.0036 µM.
